{"source": "patent US20170318812A1", "about": "“Plant and Crop Growth Regulating/Biostimulant Formulations and Methods of Use” (Arysta Lifescience North America, LLC, priority 2014, published 2017)", "format_in_all_cases": "in vivo", "key": {"[1]": {"tested_on": "GLXMA Glycine max (Soybean)", "experiment": "Ipfencarbazone biostimulant effect, early post emergence foliar application, greenhouse pots, plant height: soybean", "conditions": "for Plant HEIGHT, Mean / Plant HEIGHT, single plots: Soybean BMXPOTENCIA", "source_text": "(§1) The original objective of this Example was to evaluate the herbicidal effect of ipfencarbazone when applied as a post emergent treatment to a range of selected crops and weeds. Unexpectedly, crop plant growth stimulation was observed. The actual species of weeds and crops are listed in the summary data tabulated below and in FIGS. 1-13. By convention each plant species has a Bayer code (5-letter name) with the scientific name for the plant referenced in FIGS. 1-13. In each Figure, each tray contains the same configuration of weeds and/or crops. In each Figure there is one replication of each treatment (six treatments in total). The top three photographs in each Figure show the Bayer Codes and bottom three photographs are aligned with the top three facilitating viewing of the same plant species. Throughout the Examples various abbreviations as conventional shorthand notation and will be appreciated by those skilled in the art. Some exemplary abbreviations include, “CV”=Co-efficient of Variation,” “LSD”=Least Significant Difference” (G/L (gram per L) AND GA/L (gram of active ingredient per L); “SC”=suspension concentrate formulation. The diluent in all treatments was water. By convention factors that are identical in all treatments (e.g. diluent and surfactant) are not listed in each treatment.\n(§2) Methods: The indicated size pots (see Tables below) are filled with a specific soil, the soil properties being indicated below. The referenced crops and weeds are planted by hand in each pot. […] The experiments include six treatments each replicated three times on each crop/weed species. At a specific time after emergence each crop and weed species was treated with ipfencarbazone plus a non-ionic surfactant (NIS). In the present Example, the surfactant employed was ENERGIC™ (non-ionic surfactant). The application timing is indicated in each of the Tables (1 or 2 leaf stage) below. Ipfencarbazone plus surfactant was diluted in water and applied at a rate equivalent to about 250 L/ha. Ipfencarbazone was applied using a track sprayer. After treatment, the pots were randomized in a greenhouse. At each assessment (indicated by “days after treatment” or DAT) the height of each plant was measured. The letters next to each mean indicate the level of statistical significance.\n(§3) Replications: 3, Untreated treatments: 1, Design: Randomized Complete Block (RCB), Treatment units: Treated ‘Plot’ experimental unit size, Dry Form. Unit: %, Treated ‘Plot’ experimental unit size Width: 1 meter, Treated ‘Plot’ experimental unit size Length: 1.4 meters, Application volume: 250 L/ha, Mix size: 0.15 liters, […]"}, "[2]": {"tested_on": "GOSHI Gossypium hirsutum (American upland cotton)", "experiment": "Ipfencarbazone biostimulant effect, early post emergence foliar application, greenhouse pots, plant height: cotton", "conditions": "for Plant HEIGHT, Mean / Plant HEIGHT, single plots: Cotton 975WS; for HEIGHT, percent of untreated check (APoC) / HEIGHT, treatment mean: GOSHI 975WS", "source_text": "as §1, §2, §3"}, "selected crops and weeds": {"tested_on": "selected crops and weeds", "experiment": "Post emergent treatment of a range of selected crops and weeds (FIGS. 1-13), measured and visual observation", "source_text": "as §1, §2"}, "[3]": {"conditions": "GLXMA BMXPOTENCIA, 1000 g ai/ha, 15 DA-A"}, "[4]": {"conditions": "GLXMA BMXPOTENCIA, 1000 g ai/ha, 28 DA-A"}, "[5]": {"conditions": "28 DA-A, 62.5 g ai/ha + Energic NIS 0.2 % v/v"}, "[6]": {"conditions": "28 DA-A, 125 g ai/ha + Energic NIS 0.2 % v/v"}, "[7]": {"conditions": "28 DA-A, 250 g ai/ha + Energic NIS 0.2 % v/v"}, "[8]": {"conditions": "28 DA-A, 500 g ai/ha + Energic NIS 0.2 % v/v"}, "[9]": {"conditions": "28 DA-A, 1000 g ai/ha + Energic NIS 0.2 % v/v"}, "[10]": {"conditions": "15 DA-A, 62.5 g ai/ha + Energic NIS 0.2 % v/v"}, "[11]": {"conditions": "15 DA-A, 125 g ai/ha + Energic NIS 0.2 % v/v"}, "[12]": {"conditions": "15 DA-A, 250 g ai/ha + Energic NIS 0.2 % v/v"}, "[13]": {"conditions": "15 DA-A, 500 g ai/ha + Energic NIS 0.2 % v/v"}}, "note": "Where “and” joins values, the source holds several entries; their conditions need not be identical. Equal values may be shown once.", "data": [{"smiles": "CC(C)N(C(=O)n1cnn(-c2ccc(Cl)cc2Cl)c1=O)c1ccc(F)cc1F", "note": "[ARY-0572-001, ipfencarbazone]", "values": [{"measurement": "HEIGHT, percent of untreated check (APoC)", "setting": "[1]; [3]", "value": "(65.5%)"}, {"measurement": "HEIGHT, treatment mean", "setting": "[1]; [3]", "value": "8.7 cd cm and 8.7 cm"}, {"measurement": "HEIGHT, single plots (replicates)", "setting": "[1]; GLXMA BMXPOTENCIA, 1000 g ai/ha, 15 DA-A, plots 106, 203, 304", "value": "6.7 cm and 10.0 cm and 9.3 cm"}, {"measurement": "HEIGHT, percent of untreated check (APoC)", "setting": "[1]; [4]", "value": "(71.3%)"}, {"measurement": "HEIGHT, treatment mean", "setting": "[1]; [4]", "value": 14.9, "unit": "bc cm"}, {"measurement": "Plant HEIGHT, Mean", "setting": "[1]; [5]", "value": 30.6, "unit": "cm"}, {"measurement": "Plant HEIGHT, single plots", "setting": "[1]; [5]", "value": "32.7 cm and 29.3 cm and 29.7 cm"}, {"measurement": "Plant HEIGHT, Mean", "setting": "[1]; [6]", "value": 23.8, "unit": "cm"}, {"measurement": "Plant HEIGHT, single plots", "setting": "[1]; [6]", "value": "20.7 cm and 22.7 cm and 28.0 cm"}, {"measurement": "Plant HEIGHT, Mean", "setting": "[1]; [7]", "value": 18.3, "unit": "cm"}, {"measurement": "Plant HEIGHT, single plots", "setting": "[1]; [7]", "value": "20.3 cm and 21.7 cm and 13.0 cm"}, {"measurement": "Plant HEIGHT, Mean", "setting": "[1]; [8]", "value": 13.2, "unit": "cm"}, {"measurement": "Plant HEIGHT, Mean", "setting": "[1]; [9]", "value": 14.9, "unit": "cm"}, {"measurement": "Plant HEIGHT, single plots", "setting": "[1]; [9]", "value": "9.0 cm and 18.0 cm and 17.7 cm"}, {"measurement": "Plant HEIGHT, Mean", "setting": "[2]; [10]", "value": 16.1, "unit": "cm"}, {"measurement": "Plant HEIGHT, single plots", "setting": "[2]; [10]", "value": "19.2 cm and 13.7 cm and 15.3 cm"}, {"measurement": "Plant HEIGHT, Mean", "setting": "[2]; [11]", "value": 11.9, "unit": "cm"}, {"measurement": "Plant HEIGHT, single plots", "setting": "[2]; [11]", "value": "9.7 cm and 12.0 cm and 14.0 cm"}, {"measurement": "Plant HEIGHT, Mean", "setting": "[2]; [12]", "value": 9.5, "unit": "cm"}, {"measurement": "Plant HEIGHT, single plots", "setting": "[2]; [12]", "value": "9.3 cm and 9.2 cm and 10.0 cm"}, {"measurement": "Plant HEIGHT, Mean", "setting": "[2]; [13]", "value": 7.7, "unit": "cm"}, {"measurement": "Plant HEIGHT, single plots", "setting": "[2]; [13]", "value": "9.2 cm and 6.3 cm and 7.7 cm"}, {"measurement": "Plant HEIGHT, Mean", "setting": "[2]; 15 DA-A, 1000 g ai/ha + Energic NIS 0.2 % v/v", "value": 6.9, "unit": "cm"}, {"measurement": "Plant HEIGHT, Mean", "setting": "[2]; [5]", "value": 24.9, "unit": "cm"}, {"measurement": "Plant HEIGHT, single plots", "setting": "[2]; [5]", "value": "26.0 cm and 27.7 cm and 21.0 cm"}, {"measurement": "Plant HEIGHT, Mean", "setting": "[2]; [6]", "value": 17.7, "unit": "cm"}, {"measurement": "Plant HEIGHT, single plots", "setting": "[2]; [6]", "value": "19.0 cm and 17.3 cm and 16.7 cm"}, {"measurement": "Plant HEIGHT, Mean", "setting": "[2]; [7]", "value": 15.8, "unit": "cm"}, {"measurement": "Plant HEIGHT, Mean", "setting": "[2]; [8]", "value": 13.2, "unit": "cm"}, {"measurement": "Plant HEIGHT, Mean", "setting": "[2]; [9]", "value": 8.9, "unit": "cm"}, {"measurement": "HEIGHT, percent of untreated check (APoC)", "setting": "[2]; 62.5 g ai/ha, 15 DA-A", "value": "(137.6%)"}, {"measurement": "HEIGHT, treatment mean", "setting": "[2]; 62.5 g ai/ha, 15 DA-A", "value": 16.1, "unit": "a cm"}, {"measurement": "HEIGHT, percent of untreated check (APoC)", "setting": "[2]; 62.5 g ai/ha, 28 DA-A", "value": "(154.5%)"}, {"measurement": "HEIGHT, treatment mean", "setting": "[2]; 62.5 g ai/ha, 28 DA-A", "value": 24.9, "unit": "a cm"}, {"measurement": "HEIGHT, percent of untreated check (APoC)", "setting": "[2]; 125 g ai/ha, 15 DA-A", "value": "(101.9%)"}, {"measurement": "HEIGHT, treatment mean", "setting": "[2]; 125 g ai/ha, 15 DA-A", "value": 11.9, "unit": "b cm"}, {"measurement": "HEIGHT, percent of untreated check (APoC)", "setting": "[2]; 125 g ai/ha, 28 DA-A", "value": "(109.7%)"}, {"measurement": "HEIGHT, treatment mean", "setting": "[2]; 125 g ai/ha, 28 DA-A", "value": 17.7, "unit": "ab cm"}, {"measurement": "HEIGHT, percent of untreated check (APoC)", "setting": "[2]; 250 g ai/ha, 15 DA-A", "value": "(81.4%)"}, {"measurement": "HEIGHT, treatment mean", "setting": "[2]; 250 g ai/ha, 15 DA-A", "value": 9.5, "unit": "bc cm"}, {"measurement": "HEIGHT, percent of untreated check (APoC)", "setting": "[2]; 250 g ai/ha, 28 DA-A", "value": "(97.9%)"}, {"measurement": "HEIGHT, treatment mean", "setting": "[2]; 250 g ai/ha, 28 DA-A", "value": 15.8, "unit": "bc cm"}, {"measurement": "HEIGHT, percent of untreated check (APoC)", "setting": "[2]; 500 g ai/ha, 15 DA-A", "value": "(66.2%)"}, {"measurement": "HEIGHT, treatment mean", "setting": "[2]; 500 g ai/ha, 15 DA-A", "value": 7.7, "unit": "c cm"}, {"measurement": "HEIGHT, percent of untreated check (APoC)", "setting": "[2]; 500 g ai/ha, 28 DA-A", "value": "(82.1%)"}, {"measurement": "HEIGHT, treatment mean", "setting": "[2]; 500 g ai/ha, 28 DA-A", "value": 13.2, "unit": "bc cm"}, {"measurement": "HEIGHT, percent of untreated check (APoC)", "setting": "[2]; 1000 g ai/ha, 15 DA-A", "value": "(59.5%)"}, {"measurement": "HEIGHT, treatment mean", "setting": "[2]; 1000 g ai/ha, 15 DA-A", "value": 6.9, "unit": "c cm"}, {"measurement": "HEIGHT, percent of untreated check (APoC)", "setting": "[2]; 1000 g ai/ha, 28 DA-A", "value": "(55.2%)"}, {"measurement": "HEIGHT, treatment mean", "setting": "[2]; 1000 g ai/ha, 28 DA-A", "value": 8.9, "unit": "c cm"}, {"measurement": "effect on crop plant seedlings (growth)", "setting": "selected crops and weeds; about 60 to about 125 grams per hectare, corn, wheat, soybean and dry bean seedlings", "value": "positive effect"}, {"measurement": "impact on plant growth", "setting": "selected crops and weeds; applied post emergent, all crop and weed species evaluated, all use rates", "value": "significant, positive impact on plant growth"}, {"measurement": "growth rate (biomass, leaf area, plant height)", "setting": "selected crops and weeds; early post treatment, wheat, sorghum, corn, soybean, dry bean and cotton", "value": "meaningful increase in growth rate"}, {"measurement": "herbicidal effect", "setting": "selected crops and weeds; higher rates, 500 and 1000 g a.i./ha, specific crops and weeds", "value": "some herbicidal effect"}, {"measurement": "plant color (visual observation)", "setting": "selected crops and weeds; treated plants compared to the untreated control", "value": "significant greening effect"}]}]}
